Experimental data published in patent US20250230165A1, “HETEROCYCLIC COMPOUNDS FOR USE IN THE TREATMENT OF CANCER” (ARTIOS PHARMA LIMITED, priority 2021, published 2025).

What follows are molecules tested against T1, Human Polθ polymerase domain (aa1820-2590) (Homo sapiens, UniProt O75417) (assay: Polθ Polymerase Domain Kinact/KI Assay (PicoGreen)). Conditions: 0.8 nM Polθ, 100 nM DNA substrate, kobs vs [I] fit for 2-step covalent inhibitor.
T1 construct: Human Polθ polymerase domain (aa1820-2590) was expressed in E. coli; made in house; host or cells: E. coli
T1 sequence (O75417 1820-2590): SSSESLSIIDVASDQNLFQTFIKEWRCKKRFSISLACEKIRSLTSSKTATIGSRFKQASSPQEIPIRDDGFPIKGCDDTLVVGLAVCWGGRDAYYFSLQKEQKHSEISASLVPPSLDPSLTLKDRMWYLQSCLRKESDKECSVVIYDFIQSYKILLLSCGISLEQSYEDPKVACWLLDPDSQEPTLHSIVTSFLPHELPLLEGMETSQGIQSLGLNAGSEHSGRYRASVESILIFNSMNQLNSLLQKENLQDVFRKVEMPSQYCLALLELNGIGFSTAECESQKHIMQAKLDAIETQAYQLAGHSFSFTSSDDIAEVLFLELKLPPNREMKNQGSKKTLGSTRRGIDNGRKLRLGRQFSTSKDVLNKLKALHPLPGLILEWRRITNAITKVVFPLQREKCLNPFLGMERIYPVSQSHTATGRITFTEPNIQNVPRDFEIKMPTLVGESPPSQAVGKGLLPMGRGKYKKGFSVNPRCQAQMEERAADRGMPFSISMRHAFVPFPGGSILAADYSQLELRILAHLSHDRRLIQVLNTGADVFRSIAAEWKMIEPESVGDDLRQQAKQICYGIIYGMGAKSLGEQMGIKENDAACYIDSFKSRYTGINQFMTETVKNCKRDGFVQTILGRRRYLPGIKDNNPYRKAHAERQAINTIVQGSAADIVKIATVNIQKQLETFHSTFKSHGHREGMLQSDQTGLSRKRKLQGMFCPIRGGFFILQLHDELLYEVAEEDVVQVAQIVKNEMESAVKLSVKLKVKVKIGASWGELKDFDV
Assay type: biochemical
Outline: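 Kinact and KI derive from fitting kobs versus [I], where kobs were fitted from EDTA-stopped PicoGreen time courses (up to 60 min) in Tris pH 7.5 buffer with 1% DMSO, 0.8 nM enzyme, 100 nM DNA and […].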

Molecule | Kinact/Kl [M⁻¹ s⁻¹]
C=C(CN(CC)CC)C(=O)N1CC(OCCCN2C[C@H]3CC(=O)N(c4cc(C(F)(F)F)cc(C)n4)[C@@H]3C(=O)N(C)c3cccc(Cl)c32)C1 [Example 166, (3aR, 11aS)-6-chloro-5-(3-((1-(2-((diethylamino)methyl)acryloyl)azetidin-3-yl)oxy)propyl)-10-methyl-1-(6-methyl-4-(trifluoromethyl)pyridin-2-yl)-1,3a,4,5,10,11a-hexahydro-2H-benzo[b]pyrrolo[2,3-f][1,4]diazocine-2,11(3H)-dione] | 3.41e+06
C=CC(=O)N1CCN(c2cccc(N3C[C@H]4CC(=O)N(c5cc(C(F)(F)F)cc(C)n5)[C@@H]4C(=O)N(C)c4cccc(F)c43)c2)CC1 [Example 54, (3aR,11aS)-5-(3-(4-acryloylpiperazin-1-yl)phenyl)-6-fluoro-10-methyl-1-(6-methyl-4-(trifluoromethyl)pyridin-2-yl)-1,3a,4,5,10,11a-hexahydro-2H-benzo[b]pyrrolo[2,3-f][1,4]diazocine-2,11(3H)-dione] | 110000
C=CC(=O)N1CC(c2nc(CN3C[C@H]4CC(=O)N(c5cc(C(F)(F)F)cc(C)n5)[C@@H]4C(=O)N(C)c4cccc(F)c43)c[nH]2)C1 [Example 122, (3aR,11aS)-5-((2-(1-acryloylazetidin-3-yl)-1H-imidazol-4-yl)methyl)-6-fluoro-10-methyl-1-(6-methyl-4-(trifluoromethyl)pyridin-2-yl)-1,3a,4,5,10,11a-hexahydro-2H-benzo[b]pyrrolo[2,3-f][1,4]diazocine-2,11(3H)-dione] | 610000
C=CC(=O)N1CCOc2ccc(CN3C[C@H]4CC(=O)N(c5cc(C(F)(F)F)cc(C)n5)[C@@H]4C(=O)N(C)c4cccc(Cl)c43)cc21 [Example 250, (3aR,11aS)-5-((4-acryloyl-3,4-dihydro-2H-benzo[b][1,4]oxazin-6-yl)methyl)-6-chloro-10-methyl-1-(6-methyl-4-(trifluoromethyl)pyridin-2-yl)-1,3a,4,5,10,11a-hexahydro-2H-benzo[b]pyrrolo[2,3-f][1,4]diazocine-2,11(3H)-dione] | 530000
C=C(CN(C)C)C(=O)N1CC(CCCN2C[C@H]3CC(=O)N(c4cc(C(F)(F)F)cc(C)n4)[C@@H]3C(=O)N(C)c3cccc(C)c32)C1 [Example 327, (3aR,11aS)-5-(3-(1-(2-((dimethylamino)-methyl)acryloyl)-azetidin-3-yl)propyl)-6,10-dimethyl-1-(6-methyl-4-(trifluoro-methyl)pyridin-2-yl)-1,3a,4,5,10,11a-hexa-hydro-2H-benzo[b] pyrrolo[2,3-f][1,4] diazocine-2,11(3H)-dione] | 3.64e+06
C=CC(=O)N1CC(N2CCN(CCN3C[C@H]4CC(=O)N(c5cc(C(F)(F)F)cc(C)n5)[C@@H]4C(=O)N(C)c4cccc(C)c43)CC2)C1 [Example 115, (3aR,11aS)-5-(2-(4-(1-acryloylazetidin-3-yl)piperazin-1-yl)ethyl)-6,10-dimethyl-1-(6-methyl-4-(trifluoromethyl)pyridin-2-yl)-1,3a,4,5,10,11a-hexahydro-2H-benzo[b]pyrrolo[2,3-f][1,4]diazocine-2,11(3H)-dione] | 2.35e+06
(3aR,11aS)-5-(2-((3R/S,9aS/R)-8-acryloyl-3-methyl-4-oxooctahydro-2H-pyrazino[1,2-a]pyrazin-2-yl)ethyl)-6-fluoro-10-methyl-1-(6-methyl-4-(trifluoromethyl)pyridin-2-yl)-1,3a,4,5,10,11a-hexahydro-2H-benzo[b]pyrrolo[2,3-f][1,4]diazocine-2,11(3H)-dione [Example 107] | 420000
C=CC(=O)N1CCN2C(=O)[C@H](C)N(CCN3C[C@H]4CC(=O)N(c5cc(C(F)(F)F)cc(C)n5)[C@@H]4C(=O)N(C)c4cccc(F)c43)C[C@@H]2C1 (single isomer, unassigned) [Example 108] | 2.35e+06
C=CC(=O)N1Cc2cc(CN3C[C@H]4CC(=O)N(c5cc(C(F)(F)F)cc(C)n5)[C@@H]4C(=O)N(C)c4cccc(Cl)c43)cnc2C1COC (single isomer, unassigned) [Example 237] | 270000
C=CC(=O)N1Cc2nc(CN3C[C@H]4CC(=O)N(c5cc(C(F)(F)F)cc(C)n5)[C@@H]4C(=O)N(C)c4cccc(Cl)c43)ccc2C1CO (stereo partly drawn) [Example 239, (3aR,11aS)-5-((6-acryloyl-5-(hydroxymethyl)-6,7-dihydro-5H-pyrrolo[3,4-b]pyridin-2-yl)methyl)-6-chloro-10-methyl-1-(6-methyl-4-(trifluoromethyl)pyridin-2-yl)-1,3a,4,5,10,11a-hexahydro-2H-benzo[b]pyrrolo[2,3-f][1,4]diazocine-2,11(3H)-dione] | 730000
C=CC(=O)N1Cc2nc(CN3C[C@H]4CC(=O)N(c5cc(C(F)(F)F)cc(C)n5)[C@@H]4C(=O)N(C)c4cccc(Cl)c43)cn2CC1CO (stereo partly drawn) [Example 244, (3aR,11aS)-5-((7-acryloyl-6-(hydroxymethyl)-5,6,7,8-tetrahydroimidazo[1,2-a]pyrazin-2-yl)methyl)-6-chloro-10-methyl-1-(6-methyl-4-(trifluoromethyl)pyridin-2-yl)-1,3a,4,5,10,11a-hexahydro-2H-benzo[b]pyrrolo[2,3-f][1,4]diazocine-2,11(3H)-dione] | 3.83e+06
C=CC(=O)N1CC2(CN(CCN3C[C@H]4CC(=O)N(c5cc(C(F)(F)F)cc(C)n5)[C@@H]4C(=O)N(C)c4cccc(Cl)c43)CC3COCCN32)C1 (single isomer, unassigned) [Example 26a] | 690000
C=CC(=O)N1CCN(CCN2C[C@H]3CC(=O)N(c4cc(C(F)(F)F)cc(C)n4)[C@@H]3C(=O)N(C)c3cccc(C)c32)[C@@H](C)C1 [Example 260, (3aR,11aS)-5-(2-((S)-4-acryloyl-2-methylpiperazin-1-yl)ethyl)-6,10-dimethyl-1-(6-methyl-4-(trifluoromethyl)pyridin-2-yl)-1,3a,4,5,10,11a-hexahydro-2H-benzo[b]pyrrolo[2,3-f][1,4]diazocine-2,11(3H)-dione] | 1.54e+06

The next lines start with the values.

Kinact/Kl [M⁻¹ s⁻¹] | Molecule
2.63e+06 | C=CC(=O)N1CCC(N2CCC(CN3C[C@H]4CC(=O)N(c5cc(C(F)(F)F)cc(C)n5)[C@@H]4C(=O)N(C)c4cccc(C)c43)CC2)C1 (mixture of isomers) [Example 95a, (3aR,11aS)-5-((1-((S/R)-1-acryloylpyrrolidin-3-yl)piperidin-4-yl)methyl)-6,10-dimethyl-1-(6-methyl-4-(trifluoromethyl)pyridin-2-yl)-1,3a,4,5,10,11a-hexahydro-2H-benzo[b]pyrrolo[2,3-f][1,4]diazocine-2,11(3H)-dione]
150000 | C=CC(=O)N1CCOC[C@H]1c1ccc(CN2C[C@H]3CC(=O)N(c4cc(C(F)(F)F)cc(C)n4)[C@@H]3C(=O)N(C)c3cccc(C)c32)cn1 (racemic) [Example 324a, (3aR,11aS)-5-((6-((R/S)-4-acryloyl-morpholin-3-yl)pyr-idin-3-yl)methyl)-6,10-dimethyl-1-(6-methyl-4-(trifluoro-methyl)pyridin-2-yl)-1,3a,4,5,10, 11a-hexahydro-2H-benzo[b]pyrrolo [2,3-f][1,4]diazo-cine-2,11(3H)-dione]
2.74e+06 | C=C(CN(C)C)C(=O)N[C@H]1CCn2cc(CN3C[C@H]4CC(=O)N(c5cc(C(F)(F)F)cc(C)n5)[C@@H]4C(=O)N(C)c4cccc(C)c43)nc2C1 (racemic) [Example 330a, N-((S/R)-2-(((3aR, 11aS)-6,10-dimethyl-1-(6-methyl-4-(trifluoromethyl)-pyridin-2-yl)-2,11-dioxo-1,2,3,3a,4,10, 11,11a-octahydro-5H-benzo[b]pyrrolo [2,3-f][1,4]diazocin-5-yl)methyl)-5,6,7,8-tetrahydroimidazo [1,2-a]pyridin-7-yl)-2-((dimethylamino)-methyl)acrylamide]
5.73e+06 | C=C(CN(C)C)C(=O)N[C@H]1CCc2nc(CN3C[C@H]4CC(=O)N(c5cc(C(F)(F)F)cc(C)n5)[C@@H]4C(=O)N(C)c4cccc(C)c43)cn2C1 (racemic) [Example 329b, N-((S/R)-2-(((3aR, 11aS)-6,10-dimethyl-1-(6-methyl-4-(tri-fluoromethyl)pyridin-2-yl)-2,11-dioxo-1,2,3,3a,4,10,11,11a-octahydro-5H-benzo [b]pyrrolo[2,3-f][1,4]diazocin-5-yl)meth-yl)-5,6,7,8-tetrahydro-imidazo[1,2-a]pyr-idin-6-yl)-2-((dimeth-ylamino)methyl)-acrylamide]
